The source of these data is paper PMC3635668 (Analytical chemistry, 2013).

Where two headings read alike, the source gives them in different places. Non-standard residues stand in square brackets, D forms with d. No end group written: not given here. Sta = CC(C)C[C@H](N)[C@@H](O)CC(=O)O

Experiment [1] has as its target BACE1 (Homo sapiens, UniProt P56817). Briefly: SPR antibody-amplified BACE1 cleavage inhibition assay, immobilized APP. The format is biochemical. As to conditions: for BACE1 inhibition, two-channel screening (in words): 30 nM compound 1 (CH1) or 2 μM compound 2 (CH2), Figure 2B.
For experiment [2], the system named is BACE1. As to conditions: read-out: IC50 (ELISA); measured from ELISA; cited from earlier work.
The subject of experiment [3] is BACE1. As to conditions: read-out: IC50 (MS); determined by MS; cited from earlier work.
Setting [4] is: 10 nM BACE1, SA-coated PEG chip.

Sequence of BACE1 (Homo sapiens, UniProt P56817) (P56817 46-501): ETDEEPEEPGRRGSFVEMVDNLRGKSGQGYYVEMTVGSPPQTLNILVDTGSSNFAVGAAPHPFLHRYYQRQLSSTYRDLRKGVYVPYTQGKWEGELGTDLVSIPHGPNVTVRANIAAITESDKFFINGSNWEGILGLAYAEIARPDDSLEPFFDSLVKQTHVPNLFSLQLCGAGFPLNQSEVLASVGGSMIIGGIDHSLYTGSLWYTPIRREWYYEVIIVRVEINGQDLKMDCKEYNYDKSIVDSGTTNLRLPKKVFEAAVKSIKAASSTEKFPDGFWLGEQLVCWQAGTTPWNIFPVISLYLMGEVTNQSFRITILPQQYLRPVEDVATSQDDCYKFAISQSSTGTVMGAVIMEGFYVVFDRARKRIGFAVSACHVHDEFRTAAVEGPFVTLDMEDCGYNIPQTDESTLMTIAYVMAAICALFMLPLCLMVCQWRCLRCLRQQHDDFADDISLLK

Take “KTEEISEVN-Sta-VAEF (KTEEISEVN[Sta]VAEF) [Compound 1]”: the “BACE1 inhibition, two-channel screening (in words)” value in experiment [1] (setting [4]) is “exhibited inhibition of the BACE1 activity”. In addition, in experiment [1] (30 nM compound 1 vs 2 μM compound 2, Figure 2B), the “relative potency compound 1 vs compound 2 (in words)” value is reported as “much more potent inhibitor”. For the same substance, in experiment [1] (40 nM compound, 10 nM BACE1, SA-coated PEG chip, Figure 2A curve c), the “BACE1 inhibition (in words)” value is reported as “insufficient to completely halt the peptide cleavage by BACE1”. In addition, the 50% inhibitory concentration (IC50) – broadly, the midpoint of a concentration-inhibition curve – in experiment [2] was 30 nM.
Consider Ph-LL-4,5-dehydro-L-CHO [Compound 2], for which the “BACE1 inhibition, two-channel screening (in words)” value in experiment [1] (setting [4]) is reported as “exhibited inhibition of the BACE1 activity”. Moreover, in experiment [1] (2 μM compound 2, 10 nM BACE1, Ni-NTA chip, Figure 4 cycle 4), the “BACE1 inhibition (in words)” value is reported as “partially inhibits BACE1”. For the same substance, the IC50 in experiment [3] is 3000 nM.
